Earlier results, collected in patent publication US20240148879A1, “GLP-1R, GIP-R AND/OR GCGR AGONISTS, FORMULATIONS, AND METHODS OF USE” (Spitfire Pharma LLC, priority 2021, published 2024).
Bridge positions count the residues as written; N and C are the ends. Ends that are not written are not given here.

Assays:
[1] = 12 weeks

Compound | reduction in liver fat content (6 weeks) | NASH-related alanine aminotransferase (ALT) reduction (compared with liraglutide alone) | degree of weight loss (over 26 weeks of administration) | reduction in body weight [1]
CCCCCCCCCCCCCCCC(=O)N[C@@H](CCC(=O)NCCCC[C@H](NC(=O)[C@H](CC(=O)O)NC(=O)[C@H](CO)NC(=O)[C@@H](NC(=O)[C@H](Cc1ccccc1)NC(=O)[C@@H](NC(=O)CNC(=O)[C@H](CCC(N)=O)NC(=O)[C@H](CO)NC(=O)[C@@H](N)Cc1c[nH]cn1)[C@@H](C)O)[C@@H](C)O)C(=O)N[C@@H](CO)C(=O)N[C@@H](CCC(=O)O)C(=O)N[C@@H](Cc1ccc(O)cc1)C(=O)N[C@@H](CC(C)C)C(=O)N[C@@H](CC(=O)O)C(=O)N[C@@H](CO)C(=O)N[C@@H](CCC(=O)O)C(=O)N[C@@H](CCCNC(=N)N)C(=O)N[C@@H](C)C(=O)N[C@@H](CCCNC(=N)N)C(=O)N[C@@H](CC(=O)O)C(=O)N[C@@H](Cc1ccccc1)C(=O)N[C@H](C(=O)N[C@@H](C)C(=O)N[C@@H](Cc1c[nH]c2ccccc12)C(=O)N[C@@H](CC(C)C)C(=O)N[C@@H](CCC(=O)O)C(=O)N[C@@H](C)C(=O)NCC(=O)NCC(=O)O)C(C)C)C(=O)O [cotadutide] | 39% | greater improvement | 5.4% | –
JNJ 64565111: a balanced dual agonist (HAQGTFTSDYSKYLDEKRAKEFVQWLMNTX; lactam 16-20; X not resolved here; also: Fc carrier conjugate) | – | – | – | 8%
